Test results: patent US20230278981A1, “DICHLOROPHENOL HSD17B13 INHIBITORS AND USES THEREOF” (INIPHARM, INC., priority 2020, published 2023)

What follows are molecules tested against HSD17B13 (Homo sapiens (Human), UniProt Q7Z5P4) (assay: LC/MS estrone detection assay: conversion of estradiol to estrone by HSD17B13). Settings: 4 μM estradiol, 6 mM NAD+, 30 nM HSD17B13 enzyme (E. coli expressed His-tagged), 2 hours at 26.5° C.
Type: biochemical
Protocol: The liquid chromatography/mass spectrometry (LC/MS) estrone detection assay monitors the conversion of estradiol to estrone by HSD17B13. This assay was undertaken in a 96wp format (Eppendorf deep well Plate 96/500) in an 80 μl reaction volume containing: 4 μM of Estradiol (E2; Cayman; Ser. No. 10/006,315), 6 mM NAD+(Sigma; #N0623) and 30 nM HSD17B13 enzyme (in-house; E. coli expressed His-tagged, purified, soluble protein) in a reaction containing […] potassium phosphate buffer pH 7.4, with 0.5% vehicle (DMSO). Reactions were incubated for 2 hours at 26.5° C., and estradiol (E2) conversion to estrone (E1) was quantitated by LC-MS/MS based analyte detection for both E2 and E1 using LCMS grade reagents.
Reactions were terminated by the addition of two volumes of acetonitrile (MeCN; LCMS grade; CAS #75/05/8) containing deuterated (D4)-E1 used as internal standard (Clear Synth; #CS-T-54273; 500 ng/mL final concentration). Samples were applied to pre-prepared Bond Elut-C18 extraction cartridges (3 mL; Agilent; Ser. No. 12/102,028), washed and eluted in MeCN. Eluates were dried under nitrogen and re-suspended in 60% methanol (LCMS grade methanol; CAS #67/56/1) before submission for analysis. Aqueous linearity for E2 and E1 were included for quantification.
Analysis of samples was undertaken on a XBridge BEH C18 column (Waters; #186003033) using 0.1% Diethyl Amine in MeCN (mobile phase A; DEA CAS #109-89-7) and 0.1% Diethyl Amine in milli-Q water (mobile phase B) in a 3 min gradient allowing 25% B. Analytes were detected in negative mode using MRM analysis, with E2 having a RT of 1.85 min and E1 having a RT of 2 min. Activity of the enzyme, in the absence of NAD^+, was used to evaluate specificity of conversion. Enzyme activity in the presence of test samples was expressed as a percentage of the uninhibited enzyme activity, and plotted versus inhibitor concentration. Non-linear regression was performed using a four-parameter logistic model and GraphPad Prism software (GraphPad Software, La Jolla, Calif.). All assessments were undertaken in duplicate evaluations and pooled during extraction process and subsequently injected as duplicates for LC-MS/MS analysis.

Chain of HSD17B13 (Q7Z5P4 20-300): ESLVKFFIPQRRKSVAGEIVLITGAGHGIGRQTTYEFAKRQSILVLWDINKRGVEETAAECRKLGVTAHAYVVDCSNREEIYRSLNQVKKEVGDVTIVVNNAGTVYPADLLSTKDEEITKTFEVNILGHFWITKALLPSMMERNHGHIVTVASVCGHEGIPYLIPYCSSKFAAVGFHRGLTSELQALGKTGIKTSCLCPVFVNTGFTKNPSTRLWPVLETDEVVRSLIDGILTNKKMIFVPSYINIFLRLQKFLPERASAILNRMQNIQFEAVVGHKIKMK

Compound	IC50
CC(C)(C)n1ccc(Cn2cnc3cccc(NC(=O)c4cc(Cl)c(O)c(Cl)c4)c3c2=O)n1 [Example 52, N-(3-((1-(tert-butyl)-1H-pyrazol-3-yl)methyl)-4-oxo-3,4-dihydroquinazolin-5-yl)-3,5-dichloro-4-hydroxybenzamide]	500 to 1000 nM
CN1CCN(c2ccc(Cn3cnc4cccc(NC(=O)c5cc(Cl)c(O)c(Cl)c5)c4c3=O)cc2)CC1 [Example 45, 3,5-dichloro-4-hydroxy-N-(3-(4-(4-methylpiperazin-1-yl)benzyl)-4-oxo-3,4-dihydroquinazolin-5-yl)benzamide]	1000 to 10000 nM
CS(=O)(=O)c1ccc(Cn2cnc3cccc(NC(=O)c4cc(Cl)c(O)c(Cl)c4)c3c2=O)cc1 [Example 59, 3,5-dichloro-4-hydroxy-N-(3-(4-(methylsulfonyl)benzyl)-4-oxo-3,4-dihydroquinazolin-5-yl)benzamide]	1000 to 10000 nM
Cc1ccc(NC(=O)c2cc(Cl)c(O)c(Cl)n2)c2c(=O)n(Cc3ncccc3F)c(C)nc12 [Example 195, 4,6-dichloro-N-(3-((3-fluoropyridin-2-yl)methyl)-2,8-dimethyl-4-oxo-3,4-dihydroquinazolin-5-yl)-5-hydroxypicolinamide]	1000 to 10000 nM
Cc1ccc(NC(=O)c2cc(Cl)c(O)c(Cl)n2)c2c(=O)n(Cc3ccccc3C(F)(F)F)c(C)nc12 [Example 163, 4,6-dichloro-N-(2,8-dimethyl-4-oxo-3-(2-(trifluoromethyl)benzyl)-3,4-dihydroquinazolin-5-yl)-5-hydroxypicolinamide]	100 to 500 nM
O=C(Nc1cccc2ncn(Cc3cccnc3)c(=O)c12)c1cc(Cl)c(O)c(Cl)c1 [Example 80, 3,5-dichloro-4-hydroxy-N-(4-oxo-3-(pyridin-3-ylmethyl)-3,4-dihydroquinazolin-5-yl)benzamide]	500 to 1000 nM
O=C(Nc1scnc1C(=O)NCc1cccc(C(F)(F)F)n1)c1cc(Cl)c(O)c(Cl)n1 [Example 193, 5-(4,6-dichloro-5-hydroxypicolinamido)-N-((6-(trifluoromethyl)pyridin-2-yl)methyl)thiazole-4-carboxamide]	500 to 1000 nM
Cc1ccc(NC(=O)c2cc(Cl)c(O)c(Cl)c2)c2c(=O)n(Cc3ncccc3F)c(C)nc12 [Example 183, 3,5-dichloro-N-(3-((3-fluoropyridin-2-yl)methyl)-2,8-dimethyl-4-oxo-3,4-dihydroquinazolin-5-yl)-4-hydroxybenzamide]	100 to 500 nM
O=C(Nc1cccc2ncn(Cc3ccccc3-c3ccccn3)c(=O)c12)c1cc(Cl)c(O)c(Cl)n1 [Example 110, 4,6-dichloro-5-hydroxy-N-(4-oxo-3-(2-(pyridin-2-yl)benzyl)-3,4-dihydroquinazolin-5-yl)picolinamide]	100 to 500 nM
[2H]C([2H])([2H])c1nc2c(C)ccc(NC(=O)c3cc(Cl)c(O)c(Cl)n3)c2c(=O)n1Cc1ccccc1C(F)(F)F [Example 180, 4,6-dichloro-5-hydroxy-N-(8-methyl-2-(methyl-d3)-4-oxo-3-(2-(trifluoromethyl)benzyl)-3,4-dihydroquinazolin-5-yl)picolinamide]	100 to 500 nM
O=C(Nc1cccc2ncn(Cc3cc[nH]c(=O)c3)c(=O)c12)c1cc(Cl)c(O)c(Cl)c1 [Example 4, 3,5-dichloro-4-hydroxy-N-(3-((2-hydroxypyridin-4-yl)methyl)-4-oxo-3,4-dihydroquinazolin-5-yl)benzamide]	1000 to 10000 nM
CC(C)(C)CCn1cnc2cccc(NC(=O)c3cc(Cl)c(O)c(Cl)n3)c2c1=O [Example 61, 4,6-dichloro-N-(3-(3,3-dimethylbutyl)-4-oxo-3,4-dihydroquinazolin-5-yl)-5-hydroxypicolinamide]	100 to 500 nM
Cc1nc2c(F)ccc(NC(=O)c3cc(Cl)c(O)c(Cl)n3)c2c(=O)n1Cc1nn(C)c2ccccc12 [Example 194, 4,6-dichloro-N-(8-fluoro-2-methyl-3-((1-methyl-1H-indazol-3-yl)methyl)-4-oxo-3,4-dihydroquinazolin-5-yl)-5-hydroxypicolinamide]	100 to 500 nM
O=C(Nc1cccc2ncn(Cc3cccnc3F)c(=O)c12)c1cc(Cl)c(O)c(Cl)c1 [Example 137, 3,5-dichloro-N-{3-[(2-fluoropyridin-3-yl)methyl]-4-oxo-3,4-dihydroquinazolin-5-yl}-4-hydroxybenzamide]	100 to 500 nM

Further lines, results first:

IC50	Compound
100 to 500 nM	O=C(Nc1scnc1C(=O)NCc1ccccc1C(F)(F)F)c1cc(Cl)c(O)c(Cl)n1 [Example 192, 5-(4,6-dichloro-5-hydroxypicolinamido)-N-(2-(trifluoromethyl)benzyl)thiazole-4-carboxamide]
≤ 100 nM	O=C(Nc1cccc2ncn(Cc3cccc(OC(F)(F)F)c3)c(=O)c12)c1cc(Cl)c(O)c(Cl)c1 [Example 10, 3,5-dichloro-4-hydroxy-N-(4-oxo-3-(3-(trifluoromethoxy)benzyl)-3,4-dihydroquinazolin-5-yl)benzamide]
≤ 100 nM	O=C(Nc1ccc(Cl)c2ncn(Cc3ccccc3OC(F)(F)F)c(=O)c12)c1cc(Cl)c(O)c(Cl)c1 [Example 81, 3,5-dichloro-N-(8-chloro-4-oxo-3-(2-(trifluoromethoxy)benzyl)-3,4-dihydroquinazolin-5-yl)-4-hydroxybenzamide]
100 to 500 nM	O=C(Nc1cccc2ncn(Cc3ccccc3F)c(=O)c12)c1cc(Cl)c(O)c(Cl)c1 [Example 9, 3,5-dichloro-N-(3-(2-fluorobenzyl)-4-oxo-3,4-dihydroquinazolin-5-yl)-4-hydroxybenzamide]
500 to 1000 nM	Cn1nc(NC(=O)c2cc(Cl)c(O)c(Cl)c2)c2c(=O)n(Cc3ccccc3OC(F)(F)F)cnc21 [Example 118, 3,5-dichloro-4-hydroxy-N-(1-methyl-4-oxo-5-(2-(trifluoromethoxy)benzyl)-4,5-dihydro-1H-pyrazolo[3,4-d]pyrimidin-3-yl)benzamide]
≤ 100 nM	[2H]C([2H])([2H])c1nc2c(C)ccc(NC(=O)c3cc(Cl)c(O)c(Cl)n3)c2c(=O)n1Cc1ccccc1OC(F)(F)F [Example 176, 4,6-dichloro-5-hydroxy-N-(8-methyl-2-(methyl-d3)-4-oxo-3-(2-(trifluoromethoxy)benzyl)-3,4-dihydroquinazolin-5-yl)picolinamide]
100 to 500 nM	O=C(Nc1cccc2ncn(Cc3ccc(OC(F)(F)F)cc3)c(=O)c12)c1cc(Cl)c(O)c(Cl)c1 [Example 8, 3,5-dichloro-4-hydroxy-N-(4-oxo-3-(4-(trifluoromethoxy)benzyl)-3,4-dihydroquinazolin-5-yl)benzamide]
100 to 500 nM	O=C(Nc1sc(Cl)cc1C(=O)NCCc1ccccc1OC(F)(F)F)c1cc(Cl)c(O)c(Cl)c1 [Example 38, 5-chloro-2-(3,5-dichloro-4-hydroxybenzamido)-N-(2-(trifluoromethoxy)phenethyl) thiophene-3-carboxamide]
100 to 500 nM	O=C(Nc1csc2ncn(Cc3ccccc3OC(F)(F)F)c(=O)c12)c1cc(Cl)c(O)c(Cl)c1 [Example 103, 3,5-dichloro-4-hydroxy-N-(4-oxo-3-(2-(trifluoromethoxy)benzyl)-3,4-dihydrothieno[2,3-d]pyrimidin-5-yl)benzamide]
≤ 100 nM	Cc1ccc(NC(=O)c2cc(Cl)c(O)c(Cl)c2)c2c(=O)n(Cc3ccccc3C(F)(F)F)c(CF)nc12 [Example 186, 3,5-dichloro-N-(2-(fluoromethyl)-8-methyl-4-oxo-3-(2-(trifluoromethyl)benzyl)-3,4-dihydroquinazolin-5-yl)-4-hydroxybenzamide]
100 to 500 nM	O=C(Nc1sc(C(F)(F)F)nc1C(=O)NCc1ccccc1OC(F)(F)F)c1cc(Cl)c(O)c(Cl)c1 [Example 125, 5-(3,5-dichloro-4-hydroxybenzamido)-N-(2-(trifluoromethoxy)benzyl)-2-(trifluoromethyl)thiazole-4-carboxamide]
100 to 500 nM	Cn1nc(NC(=O)c2cc(Cl)c(O)c(Cl)n2)c2c(=O)n(Cc3ccccc3OC(F)(F)F)cnc21 [Example 119, 4,6-dichloro-5-hydroxy-N-(1-methyl-4-oxo-5-(2-(trifluoromethoxy)benzyl)-4,5-dihydro-1H-pyrazolo[3,4-d]pyrimidin-3-yl)picolinamide]
100 to 500 nM	O=C(Nc1ncsc1C(=O)NCc1ccccc1OC(F)(F)F)c1cc(Cl)c(O)c(Cl)c1 [Example 27, 4-(3,5-dichloro-4-hydroxybenzamido)-N-(2-(trifluoromethoxy)benzyl)thiazole-5-carboxamide]
≤ 100 nM	O=C(Nc1scnc1C(=O)NCc1cccc(F)c1)c1cc(Cl)c(O)c(Cl)c1 [Example 34, 5-(3,5-dichloro-4-hydroxybenzamido)-N-(3-fluorobenzyl)thiazole-4-carboxamide]
